Measured values as given in the kinase profiling compilation of Christmann-Franck et al. (2016).

Key:
Assay in all cases: radiometric filter-binding kinase assay
MKNK1 (human) = MKNK1 (human) (UniProt Q9BUB5)
NTRK1 (human) = NTRK1 (human) (UniProt P04629)
CSNK1D (human) = CSNK1D (human) (UniProt P48730)
DYRK1A (human) = DYRK1A (human) (UniProt Q13627)
JAK2 JH1 JH2 (human) = JAK2 JH1 JH2 (human) (UniProt O60674)
RPS6KA1 KD1 KD2 (human) = RPS6KA1 KD1 KD2 (human) (UniProt Q15418)
MAP3K11 (human) = MAP3K11 (human) (UniProt Q16584)
IRAK4 (human) = IRAK4 (human) (UniProt Q9NWZ3)
Chain of IRAK4 (human) (Q9NWZ3 whole entry, looked up): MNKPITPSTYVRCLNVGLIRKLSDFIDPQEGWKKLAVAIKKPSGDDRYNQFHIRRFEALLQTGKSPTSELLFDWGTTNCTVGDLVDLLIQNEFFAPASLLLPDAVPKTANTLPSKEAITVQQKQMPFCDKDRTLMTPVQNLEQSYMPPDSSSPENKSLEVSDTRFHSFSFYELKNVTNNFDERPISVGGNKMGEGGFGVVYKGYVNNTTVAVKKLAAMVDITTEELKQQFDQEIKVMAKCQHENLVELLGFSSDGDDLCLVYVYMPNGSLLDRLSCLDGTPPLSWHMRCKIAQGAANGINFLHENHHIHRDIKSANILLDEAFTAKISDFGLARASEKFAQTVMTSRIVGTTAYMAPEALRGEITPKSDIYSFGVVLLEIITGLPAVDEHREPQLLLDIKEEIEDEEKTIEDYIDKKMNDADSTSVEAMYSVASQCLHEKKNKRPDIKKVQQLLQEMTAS

[1] = test system: RPS6KB1 (human), P23443 [T412E]
MARK3 (human) = MARK3 (human) (UniProt P27448)
STK3 (human) = STK3 (human) (UniProt Q13188)
TBK1 (human) = TBK1 (human) (UniProt Q9UHD2)
IKBKB (human) = IKBKB (human) (UniProt O14920)
Chain of IKBKB (human) (O14920 whole entry, looked up): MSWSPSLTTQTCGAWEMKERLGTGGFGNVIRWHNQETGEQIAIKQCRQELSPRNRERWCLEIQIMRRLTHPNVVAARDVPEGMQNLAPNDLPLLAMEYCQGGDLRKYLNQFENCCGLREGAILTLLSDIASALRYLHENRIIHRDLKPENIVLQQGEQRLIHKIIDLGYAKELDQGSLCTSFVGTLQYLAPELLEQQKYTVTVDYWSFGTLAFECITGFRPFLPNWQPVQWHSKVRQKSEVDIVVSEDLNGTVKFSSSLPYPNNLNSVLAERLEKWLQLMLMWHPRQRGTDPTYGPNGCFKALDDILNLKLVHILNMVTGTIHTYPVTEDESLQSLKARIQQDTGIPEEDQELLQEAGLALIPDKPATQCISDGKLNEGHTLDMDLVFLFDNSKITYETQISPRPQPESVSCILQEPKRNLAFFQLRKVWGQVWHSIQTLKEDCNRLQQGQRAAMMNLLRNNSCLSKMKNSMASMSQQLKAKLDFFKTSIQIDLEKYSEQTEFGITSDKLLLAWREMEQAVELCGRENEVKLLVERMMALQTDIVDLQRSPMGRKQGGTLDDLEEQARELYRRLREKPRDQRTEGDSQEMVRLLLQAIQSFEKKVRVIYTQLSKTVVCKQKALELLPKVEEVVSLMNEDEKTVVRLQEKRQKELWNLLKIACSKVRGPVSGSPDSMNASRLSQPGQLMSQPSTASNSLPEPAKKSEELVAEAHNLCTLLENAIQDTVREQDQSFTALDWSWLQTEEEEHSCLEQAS

PAK4 (human) = PAK4 (human) (UniProt O96013)
PIM1 (human) = PIM1 (human) (UniProt P11309)
Chain of PIM1 (human) (P11309 whole entry, looked up): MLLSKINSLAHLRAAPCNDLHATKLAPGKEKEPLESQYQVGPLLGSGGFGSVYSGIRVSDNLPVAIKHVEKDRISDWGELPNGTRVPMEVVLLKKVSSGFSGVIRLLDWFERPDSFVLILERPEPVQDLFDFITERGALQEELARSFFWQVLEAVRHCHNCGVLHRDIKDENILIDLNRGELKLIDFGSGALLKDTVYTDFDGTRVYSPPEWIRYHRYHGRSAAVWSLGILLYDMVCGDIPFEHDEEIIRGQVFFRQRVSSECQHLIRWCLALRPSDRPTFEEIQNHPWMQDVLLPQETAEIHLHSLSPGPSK

MAPK9 (human) = MAPK9 (human) (UniProt P45984)
NUAK1 (human) = NUAK1 (human) (UniProt O60285)
Chain of NUAK1 (human) (O60285 whole entry, looked up): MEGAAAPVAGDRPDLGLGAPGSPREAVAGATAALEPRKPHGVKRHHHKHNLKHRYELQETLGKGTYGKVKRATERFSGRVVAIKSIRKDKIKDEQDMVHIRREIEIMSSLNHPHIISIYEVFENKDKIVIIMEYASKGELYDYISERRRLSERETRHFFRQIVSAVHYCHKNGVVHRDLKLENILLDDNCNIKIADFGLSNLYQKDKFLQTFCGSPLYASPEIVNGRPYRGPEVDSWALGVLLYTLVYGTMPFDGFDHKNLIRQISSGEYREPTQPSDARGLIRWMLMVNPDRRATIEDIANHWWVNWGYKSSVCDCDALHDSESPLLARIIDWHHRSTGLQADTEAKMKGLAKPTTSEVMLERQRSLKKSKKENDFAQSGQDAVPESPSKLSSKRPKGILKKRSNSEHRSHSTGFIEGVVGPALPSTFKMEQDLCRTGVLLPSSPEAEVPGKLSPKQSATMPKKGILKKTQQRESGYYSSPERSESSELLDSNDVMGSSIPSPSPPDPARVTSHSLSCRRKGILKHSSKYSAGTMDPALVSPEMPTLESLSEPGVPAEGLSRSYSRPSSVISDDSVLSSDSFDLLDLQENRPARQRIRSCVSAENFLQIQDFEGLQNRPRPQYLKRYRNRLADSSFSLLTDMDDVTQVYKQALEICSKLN

MAPK14 (human) = MAPK14 (human) (UniProt Q16539)
Chain of MAPK14 (human) (Q16539 whole entry, looked up): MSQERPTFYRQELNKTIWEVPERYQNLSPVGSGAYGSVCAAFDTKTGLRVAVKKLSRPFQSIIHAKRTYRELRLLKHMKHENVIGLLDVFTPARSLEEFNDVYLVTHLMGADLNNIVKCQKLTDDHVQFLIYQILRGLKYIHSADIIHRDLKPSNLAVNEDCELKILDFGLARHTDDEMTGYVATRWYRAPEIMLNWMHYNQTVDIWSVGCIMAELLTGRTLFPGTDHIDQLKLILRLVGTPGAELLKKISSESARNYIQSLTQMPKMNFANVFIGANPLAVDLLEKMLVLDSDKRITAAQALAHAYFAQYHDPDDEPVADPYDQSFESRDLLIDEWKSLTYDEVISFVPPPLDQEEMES

CHEK2 (human) = CHEK2 (human) (UniProt O96017)
TTK (human) = TTK (human) (UniProt P33981)
Chain of TTK (human) (P33981 whole entry, looked up): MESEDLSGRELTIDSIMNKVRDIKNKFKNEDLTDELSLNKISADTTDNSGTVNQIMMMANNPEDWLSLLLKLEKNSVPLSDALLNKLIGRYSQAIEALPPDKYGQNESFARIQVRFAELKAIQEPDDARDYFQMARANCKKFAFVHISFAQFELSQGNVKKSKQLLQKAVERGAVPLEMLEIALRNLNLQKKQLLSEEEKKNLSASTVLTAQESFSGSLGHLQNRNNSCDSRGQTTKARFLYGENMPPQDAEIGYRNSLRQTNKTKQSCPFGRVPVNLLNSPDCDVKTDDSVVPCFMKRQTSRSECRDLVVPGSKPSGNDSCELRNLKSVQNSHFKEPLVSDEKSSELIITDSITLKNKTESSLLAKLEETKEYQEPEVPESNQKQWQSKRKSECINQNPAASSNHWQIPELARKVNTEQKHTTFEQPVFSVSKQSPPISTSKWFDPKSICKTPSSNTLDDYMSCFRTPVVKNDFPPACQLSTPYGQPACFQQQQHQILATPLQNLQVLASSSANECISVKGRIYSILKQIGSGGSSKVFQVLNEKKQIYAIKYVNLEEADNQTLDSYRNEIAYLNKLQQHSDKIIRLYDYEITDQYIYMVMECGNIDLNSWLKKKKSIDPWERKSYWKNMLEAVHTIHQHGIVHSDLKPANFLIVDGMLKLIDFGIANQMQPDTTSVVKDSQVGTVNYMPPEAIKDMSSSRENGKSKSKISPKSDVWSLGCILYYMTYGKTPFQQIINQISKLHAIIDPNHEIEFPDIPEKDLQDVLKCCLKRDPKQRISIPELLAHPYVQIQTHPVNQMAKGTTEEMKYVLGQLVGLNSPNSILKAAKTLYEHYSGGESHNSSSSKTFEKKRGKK

MAPKAPK2 (human) = MAPKAPK2 (human) (UniProt P49137)
NEK2 (human) = NEK2 (human) (UniProt P51955)
Chain of NEK2 (human) (P51955 whole entry, looked up): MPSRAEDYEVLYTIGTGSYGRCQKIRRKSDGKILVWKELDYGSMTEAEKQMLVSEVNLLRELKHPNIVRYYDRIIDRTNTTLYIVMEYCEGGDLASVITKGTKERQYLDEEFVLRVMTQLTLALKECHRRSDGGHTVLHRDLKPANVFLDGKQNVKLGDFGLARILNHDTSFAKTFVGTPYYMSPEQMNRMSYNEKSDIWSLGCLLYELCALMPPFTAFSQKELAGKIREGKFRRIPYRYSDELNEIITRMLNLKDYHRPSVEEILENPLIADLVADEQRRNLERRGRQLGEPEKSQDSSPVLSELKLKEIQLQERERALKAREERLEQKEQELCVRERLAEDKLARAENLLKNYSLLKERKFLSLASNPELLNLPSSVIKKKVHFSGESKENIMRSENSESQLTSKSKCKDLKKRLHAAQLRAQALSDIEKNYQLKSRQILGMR

MAPK8 (human) = MAPK8 (human) (UniProt P45983)
[2] = test system: AKT1 (human), P31749 [S473D]
NEK6 (human) = NEK6 (human) (UniProt Q9HC98)
MARK2 (human) = MARK2 (human) (UniProt Q7KZI7)
[3] = target: STK11 CAB39 STRADA (human) (UniProt Q9Y376+Q7RTN6+Q15831)
DYRK3 (human) = DYRK3 (human) (UniProt O43781)
Chain of DYRK3 (human) (O43781 whole entry, looked up): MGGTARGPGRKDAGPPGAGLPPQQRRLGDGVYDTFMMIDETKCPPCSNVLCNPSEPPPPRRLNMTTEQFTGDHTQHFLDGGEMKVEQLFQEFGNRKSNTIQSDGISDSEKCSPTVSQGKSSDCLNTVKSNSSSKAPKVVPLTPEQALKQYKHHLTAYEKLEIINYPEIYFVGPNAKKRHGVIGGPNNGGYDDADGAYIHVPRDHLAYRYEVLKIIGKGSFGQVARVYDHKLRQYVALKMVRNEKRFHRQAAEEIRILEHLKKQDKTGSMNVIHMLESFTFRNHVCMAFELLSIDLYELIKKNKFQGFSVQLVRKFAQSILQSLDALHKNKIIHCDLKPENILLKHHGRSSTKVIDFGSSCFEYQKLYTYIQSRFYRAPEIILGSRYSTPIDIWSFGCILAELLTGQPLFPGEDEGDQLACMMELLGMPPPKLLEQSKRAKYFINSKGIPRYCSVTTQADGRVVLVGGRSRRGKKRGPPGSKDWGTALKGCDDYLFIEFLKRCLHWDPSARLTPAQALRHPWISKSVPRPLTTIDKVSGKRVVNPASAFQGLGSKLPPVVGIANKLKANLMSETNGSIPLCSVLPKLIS

MAP2K1 (human) = MAP2K1 (human) (UniProt Q02750)
MKNK2 (human) = MKNK2 (human) (UniProt Q9HBH9)
EPHB2 (human) = EPHB2 (human) (UniProt P29323)
MARK1 (human) = MARK1 (human) (UniProt Q9P0L2)
IKBKE (human) = IKBKE (human) (UniProt Q14164)
CaMK1 (human) = CaMK1 (human) (UniProt Q14012)
MAPK3 (human) = MAPK3 (human) (UniProt P27361)

Chain of MKNK1 (human) (Q9BUB5 whole entry, looked up): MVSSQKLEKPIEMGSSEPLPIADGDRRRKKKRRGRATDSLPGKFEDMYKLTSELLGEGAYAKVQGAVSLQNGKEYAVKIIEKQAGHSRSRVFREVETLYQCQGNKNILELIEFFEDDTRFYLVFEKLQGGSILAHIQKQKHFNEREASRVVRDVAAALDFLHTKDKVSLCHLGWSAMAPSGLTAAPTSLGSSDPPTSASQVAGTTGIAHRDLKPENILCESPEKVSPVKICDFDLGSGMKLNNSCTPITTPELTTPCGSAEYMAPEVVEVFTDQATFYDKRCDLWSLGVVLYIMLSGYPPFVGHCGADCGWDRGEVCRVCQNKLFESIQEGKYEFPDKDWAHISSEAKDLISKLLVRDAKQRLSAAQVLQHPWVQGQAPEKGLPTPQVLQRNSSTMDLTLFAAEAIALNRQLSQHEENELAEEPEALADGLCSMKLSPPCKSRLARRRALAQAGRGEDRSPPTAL

residual activity (MKNK1 (human); compound 0.01 µM): 100%
residual activity (MKNK1 (human); compound 0.1 µM): 87%
residual activity (MKNK1 (human); compound 1.0 µM): 55%
residual activity (NTRK1 (human); compound 0.01 µM): 97%
residual activity (NTRK1 (human); compound 0.1 µM): 90%
residual activity (NTRK1 (human); compound 1.0 µM): 67%
residual activity (CSNK1D (human); compound 0.01 µM): 116%
residual activity (CSNK1D (human); compound 0.1 µM): 101%
residual activity (DYRK1A (human); compound 0.01 µM): 98%
residual activity (DYRK1A (human); compound 0.1 µM): 105%
residual activity (DYRK1A (human); compound 1.0 µM): 101%
residual activity (JAK2 JH1 JH2 (human); compound 0.01 µM): 84%
residual activity (JAK2 JH1 JH2 (human); compound 0.1 µM): 101%
residual activity (RPS6KA1 KD1 KD2 (human); compound 0.1 µM): 92%
residual activity (RPS6KA1 KD1 KD2 (human); compound 1.0 µM): 85%
residual activity (MAP3K11 (human); compound 0.1 µM): 102%
residual activity (MAP3K11 (human); compound 1.0 µM): 90%
residual activity (IRAK4 (human); compound 0.01 µM): 112%
residual activity (IRAK4 (human); compound 0.1 µM): 99%
residual activity (IRAK4 (human); compound 1.0 µM): 57%
residual activity ([1]; compound 0.01 µM): 87%
residual activity ([1]; compound 0.1 µM): 92%
residual activity ([1]; compound 1.0 µM): 106%
residual activity (MARK3 (human); compound 0.01 µM): 98%
residual activity (MARK3 (human); compound 0.1 µM): 102%
residual activity (MARK3 (human); compound 1.0 µM): 95%
residual activity (STK3 (human); compound 0.01 µM): 97%
residual activity (STK3 (human); compound 0.1 µM): 89%
residual activity (STK3 (human); compound 1.0 µM): 102%
residual activity (TBK1 (human); compound 0.01 µM): 110%
residual activity (TBK1 (human); compound 0.1 µM): 112%
residual activity (TBK1 (human); compound 1.0 µM): 93%
residual activity (IKBKB (human); compound 0.01 µM): 103%
residual activity (IKBKB (human); compound 0.1 µM): 100%
residual activity (IKBKB (human); compound 1.0 µM): 112%
residual activity (PAK4 (human); compound 0.01 µM): 81%
residual activity (PAK4 (human); compound 0.1 µM): 100%
residual activity (PIM1 (human); compound 0.01 µM): 90%
residual activity (PIM1 (human); compound 0.1 µM): 87%
residual activity (PIM1 (human); compound 1.0 µM): 92%
residual activity (MAPK9 (human); compound 0.01 µM): 105%
residual activity (MAPK9 (human); compound 0.1 µM): 106%
residual activity (MAPK9 (human); compound 1.0 µM): 99%
residual activity (NUAK1 (human); compound 0.01 µM): 93%
residual activity (NUAK1 (human); compound 0.1 µM): 99%
residual activity (NUAK1 (human); compound 1.0 µM): 105%
residual activity (MAPK14 (human); compound 0.01 µM): 108%
residual activity (MAPK14 (human); compound 0.1 µM): 105%
residual activity (MAPK14 (human); compound 1.0 µM): 105%
residual activity (CHEK2 (human); compound 0.01 µM): 91%
residual activity (CHEK2 (human); compound 0.1 µM): 91%
residual activity (TTK (human); compound 0.01 µM): 101%
residual activity (TTK (human); compound 0.1 µM): 95%
residual activity (TTK (human); compound 1.0 µM): 101%
residual activity (MAPKAPK2 (human); compound 0.01 µM): 93%
residual activity (MAPKAPK2 (human); compound 0.1 µM): 101%
residual activity (NEK2 (human); compound 0.01 µM): 103%
residual activity (NEK2 (human); compound 0.1 µM): 127%
residual activity (NEK2 (human); compound 1.0 µM): 105%
residual activity (MAPK8 (human); compound 0.01 µM): 104%
residual activity (MAPK8 (human); compound 0.1 µM): 98%
residual activity (MAPK8 (human); compound 1.0 µM): 80%
residual activity ([2]; compound 0.01 µM): 109%
residual activity ([2]; compound 0.1 µM): 124%
residual activity ([2]; compound 1.0 µM): 107%
residual activity (NEK6 (human); compound 0.01 µM): 97%
residual activity (NEK6 (human); compound 0.1 µM): 90%
residual activity (NEK6 (human); compound 1.0 µM): 98%
residual activity (MARK2 (human); compound 0.01 µM): 90%
residual activity (MARK2 (human); compound 0.1 µM): 100%
residual activity (MARK2 (human); compound 1.0 µM): 100%
residual activity ([3]; compound 0.01 µM): 119%
residual activity ([3]; compound 0.1 µM): 120%
residual activity ([3]; compound 1.0 µM): 104%
residual activity (DYRK3 (human); compound 0.01 µM): 113%
residual activity (DYRK3 (human); compound 0.1 µM): 109%
residual activity (DYRK3 (human); compound 1.0 µM): 124%
residual activity (MAP2K1 (human); compound 0.01 µM): 101%
residual activity (MAP2K1 (human); compound 0.1 µM): 21%
residual activity (MAP2K1 (human); compound 1.0 µM): 1%
residual activity (MKNK2 (human); compound 0.01 µM): 91%
residual activity (MKNK2 (human); compound 0.1 µM): 62%
residual activity (MKNK2 (human); compound 1.0 µM): 44%
residual activity (EPHB2 (human); compound 0.01 µM): 124%
residual activity (EPHB2 (human); compound 0.1 µM): 118%
residual activity (EPHB2 (human); compound 1.0 µM): 115%
residual activity (MARK1 (human); compound 0.01 µM): 101%
residual activity (MARK1 (human); compound 0.1 µM): 99%
residual activity (MARK1 (human); compound 1.0 µM): 101%
residual activity (IKBKE (human); compound 0.01 µM): 108%
residual activity (IKBKE (human); compound 0.1 µM): 105%
residual activity (IKBKE (human); compound 1.0 µM): 92%
residual activity (CaMK1 (human); compound 0.01 µM): 96%
residual activity (CaMK1 (human); compound 0.1 µM): 96%
residual activity (CaMK1 (human); compound 1.0 µM): 112%
residual activity (MAPK3 (human); compound 0.01 µM): 111%
residual activity (MAPK3 (human); compound 0.1 µM): 102%
residual activity (MAPK3 (human); compound 1.0 µM): 57%
Compound: COc1cc(O)c2c(c1)[C@H]1OC1C[C@H](O)[C@H](O)C(=O)/C=C\C[C@H](C)OC2=O (stereo partly drawn)
